What all share (format): in vivo
The test system of series [1] is Setia = Foxtail., Giant - setaria. Put plainly: % control of giant foxtail 27 days after treatment. To be noted: rate 0.32 lbs. ai/A.
Series [2] concerns Porol = Purslane, Common - Portulaca oleraca. Kind of series: % control of common purslane 27 days after treatment. Conditions: rate 0.32 lbs. ai/A.
In series [3] the test system is Amabl = Pigweed, Prostrate - Amaranthus blitoides. Put plainly: % control of prostrate pigweed 27 days after treatment. To be noted: rate 0.32 lbs. ai/A.
Series [4] concerns Polpy = Smartweed, Pennsylvania - Polygonium pensylvanicum. Put plainly: % control of Pennsylvania smartweed 27 days after treatment. Conditions: rate 0.32 lbs. ai/A.
Series [5] concerns Setiu + Foxtail, Yellow - Sataria Leutescens. Put plainly: % control of yellow foxtail 27 days after treatment. To be noted: rate 0.32 lbs. ai/A.
The subject of series [6] is Plant Species (Setia, Porol, Amabl, Polpy, Sotlu); nuisance weeds. Kind of series: % control over the five plant species (total, average) 27 days after treatment. To be noted: rate 0.32 lbs. ai/A.
In series [7] the test system is glufosinate tolerant field corn variety Pioneer 34A55. Put plainly: Phytotoxicity rating on glufosinate tolerant field corn (chlorosis, necrosis, abnormal growth). Conditions: 1.46 Lbs ai/acre, 10 ml into the whorl.
Experimental: Seeds were germinated in 4 inch pots and maintained for one month with regular watering and temperatures to simulate field conditions. […] Each treatment was replicated four times in a randomized complete block design. […] The volume of 10 ml was selected to fill the whorl of the largest plant in the study, all others were filled to running over.
An application volume of 15 gal/acre was used to determine the mix concentration used.
The treatments were evaluated for phytotoxicity in the form of chlorosis, necrosis and abnormal growth by visually inspecting each plant. When damage was present, each plant was given a damage rating from 0 to 10 with 0 indicating no effect and 10 indicating death.

Consider “2-amino-4-(hydroxymethyl phosphinyl) butanoic acid [Glufosinate]”, for which the “% Control 27 Days After Treatment, Setia” value in series [1] is on record as 61.67%. In series [2], the “% Control 27 Days After Treatment, Porol” value came to 78.33%. Further, the “% Control 27 Days After Treatment, Amabl” value in series [3] is given as 73.33%. Also, the “% Control 27 Days After Treatment, Polpy” value in series [4] turned out to be 81.67%. For the same substance, in series [5], the “% Control 27 Days After Treatment, Sotlu” value was found to be 60.00%. For the same substance, the “% Control 27 Days After Treatment, Average” value in series [6] (average over five plant species) was 71.00%. The “% Control 27 Days After Treatment, Total” value in series [6] (sum over five plant species) was 355.00%. In series [7], the “Ratings 20 days after treatment (damage rating 0 to 10, 0 no effect, 10 death)” value is on record as 0.8 b.

The values are drawn from US6642177B1, “Sarcoslnates as glufosinate adjuvants” (Hampshire Chemical Corp., priority 1998, dated 2003).
